In ChEMBL document CHEMBL1201862, “PubChem BioAssay data set” (2004):
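Interpolation was linear, between the two tested concentrations surrounding the appropriate level; five concentrations were tested over 48 hours in 96-well plates. At the GI50, growth is halved.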 Calls of active or inactive are those of the source. Cut-off read from the data, not from the text of the source: active = GI50 up to about 1.1 µM and inactive = higher.

What was measured:
Experiment in all cases: NCI-60 cell line screen, 48 h
[1] = tested on: NCI-H23
[2] = tested on: K562
[3] = tested on: U-251
[4] = tested on: SF-295
[5] = tested on: SN12C
[6] = tested on: CAKI-1
[7] = tested on: RPMI-8226
[8] = tested on: MOLT-4
[9] = tested on: KM12
[10] = tested on: UO-31
[11] = tested on: SW-620
[12] = tested on: SR
[13] = tested on: OVCAR-5
[14] = tested on: SF-268
[15] = tested on: MDA-MB-435
[16] = tested on: SNB-19
[17] = tested on: DU-145
[18] = tested on: NCI/ADR-RES
[19] = tested on: COLO 205
[20] = tested on: HCC 2998
[21] = tested on: A498
[22] = tested on: PC-3
[23] = tested on: MCF7
[24] = tested on: 786-0
[25] = tested on: EKVX
[26] = tested on: CCRF-CEM
[27] = tested on: UACC-62
[28] = tested on: HCT-116
[29] = tested on: OVCAR-3
[30] = tested on: MDA-N
[31] = tested on: BT-549
[32] = tested on: RXF 393
[33] = tested on: SK-MEL-5
[34] = tested on: SK-MEL-28
[35] = tested on: ACHN
[36] = tested on: M14
[37] = tested on: Hs-578T
[38] = tested on: UACC-257
[39] = tested on: LOX IMVI
[40] = tested on: HL-60
[41] = tested on: NCI-H460
[42] = tested on: OVCAR-4
[43] = tested on: HCT-15
[44] = tested on: HT-29
[45] = tested on: IGROV-1

## CCOCc1c(C)cc(C)c(C2C(C(=O)c3ccccc3)N3c4ccccc4C=CC3C2(C#N)C(=O)OCC)c1C (stereo not given)
[1]
  GI50: 44.4 µM (inactive)
[2]
  GI50: > 100 µM (inactive)
[3]
  GI50: 85.7 µM (inactive)
[4]
  GI50: 53 µM (inactive)
[5]
  GI50: 61.5 µM (inactive)
[6]
  GI50: 44 µM (inactive)
[7]
  GI50: 81.7 µM (inactive)
[8]
  GI50: 86.5 µM (inactive)
[9]
  GI50: 16.8 µM (inactive)
[10]
  GI50: 49.1 µM (inactive)
[11]
  GI50: 67.3 µM (inactive)
[12]
  GI50: 82.8 µM (inactive)
[13]
  GI50: 64.9 µM (inactive)
[14]
  GI50: 53.8 µM (inactive)
[15]
  GI50: 38.7 µM (inactive)
[16]
  GI50: > 100 µM (inactive)
[17]
  GI50: 37.8 µM (inactive)
[18]
  GI50: 33.7 µM (inactive)
[19]
  GI50: 19.1 µM (inactive)
[20]
  GI50: 18.1 µM (inactive)
[21]
  GI50: > 100 µM (inactive)
[22]
  GI50: 25.8 µM (inactive)
[23]
  GI50: 24.8 µM (inactive)
[24]
  GI50: 45 µM (inactive)
[25]
  GI50: 16.1 µM (inactive)
[26]
  GI50: 56.4 µM (inactive)
[27]
  GI50: 31 µM (inactive)
[28]
  GI50: 26.7 µM (inactive)
[29]
  GI50: 17.4 µM (inactive)
[30]
  GI50: 27.4 µM (inactive)
[31]
  GI50: 28.1 µM (inactive)
[32]
  GI50: 46 µM (inactive)
[33]
  GI50: 14.8 µM (inactive)
[34]
  GI50: 64.6 µM (inactive)
[35]
  GI50: 50.9 µM (inactive)
[36]
  GI50: 36.5 µM (inactive)
[37]
  GI50: > 100 µM (inactive)
[38]
  GI50: 50.1 µM (inactive)
[39]
  GI50: 35.9 µM (inactive)
[40]
  GI50: > 100 µM (inactive)
[41]
  GI50: 27.9 µM (inactive)
[42]
  GI50: 37 µM (inactive)
[43]
  GI50: 44.2 µM
[44]
  GI50: 32.3 µM (inactive)
[45]
  GI50: 10.6 µM (inactive)
